Measured values: patent US20230277452A1, “COMPOSITIONS, DEVICES AND METHODS FOR TREATING NASAL, OTIC AND OTHER TISSUE INFECTION AND/OR INFLAMMATION” (priority 2020, published 2023)

Experiments:
[1] = Forced degradation of fluticasone propionate, percent recovery by HPLC; assay type: physicochemical
Method: A similar analysis was performed of the 0.005% fluticasone propionate cream (lot #2021-07-01).

[2] = Recovery of force-degraded fluticasone propionate spiked into placebo and of active cream, HPLC; assay type: physicochemical; conditions: Spiked into placebo
[3] = cited from earlier work
[4] = humans with psoriasis, topical betamethasone dipropionate 0.05% spray or lotion BID for 15 days; majority of subjects not measurable; cited from earlier work
Pseudomonas aeruginosa = conditions: cited from earlier work
[5] = system: Streptococci, Staphylococci, Gardnerella vaginalis, and Corynebacteria; conditions: cited from earlier work

CCC(=O)O[C@]1(C(=O)SCF)[C@H](C)C[C@H]2[C@@H]3C[C@H](F)C4=CC(=O)C=C[C@]4(C)[C@@]3(F)[C@@H](O)C[C@@]21C [fluticasone propionate]
Actual Amount ([1]; Acid (0.1N HCl, 1 hour)): 12.1791 µg/mL
Actual Amount ([1]; Base (0.1N NaOH, 1 hour)): 11.7484 µg/mL
Actual Amount ([1]; Control): 12.5695 µg/mL
Actual Amount ([1]; Heat (60° C., 3 days)): 12.0739 µg/mL
Actual Amount ([1]; Light (white light, 3 days)): 11.6609 µg/mL
Actual Amount ([1]; Peroxide (3% H2O2, 1 hour)): 16.4961 µg/mL
Peak Area FP ([2]; Acid): 2.377
Peak Area RRT = 0.32 ([2]; Acid): 0.033
Peak Area RRT = 0.33 ([2]; Acid): no peak
Peak Area RRT = 1.17 ([2]; Acid): 0.221
Total MFM-Related Area ([2]; Acid): 2.631
Peak Area FP ([2]; Base): 2.395
Peak Area RRT = 0.32 ([2]; Base): 0.032
Peak Area RRT = 0.33 ([2]; Base): no peak
Peak Area RRT = 1.17 ([2]; Base): 0.166
Total MFM-Related Area ([2]; Base): 2.593
Peak Area FP ([2]; Control): 2.607
Peak Area RRT = 0.32 ([2]; Control): no peak
Peak Area RRT = 0.33 ([2]; Control): 0.012
Peak Area RRT = 1.17 ([2]; Control): 0.046
Total MFM-Related Area ([2]; Control): 2.665
Peak Area FP ([2]; Heat): 2.924
Peak Area RRT = 0.32 ([2]; Heat): no peak
Peak Area RRT = 0.33 ([2]; Heat): no peak
Peak Area RRT = 1.17 ([2]; Heat): 0.183
Total MFM-Related Area ([2]; Heat): 3.107
Peak Area FP ([2]; Light): 2.599
Peak Area RRT = 0.33 ([2]; Light): no peak
Peak Area RRT = 1.17 ([2]; Light): 0.159
Total MFM-Related Area ([2]; Light): 2.791
Peak Area FP ([2]; Peroxide): 2.424
Peak Area RRT = 0.32 ([2]; Peroxide): no peak
Peak Area RRT = 0.33 ([2]; Peroxide): no peak
Peak Area RRT = 1.17 ([2]; Peroxide): no peak
Total MFM-Related Area ([2]; Peroxide): 2.424

C[C@]12C=CC(=O)C=C1CC[C@@H]1[C@@H]2[C@@H](O)C[C@@]2(C)[C@H]1CC[C@]2(O)C(=O)CO [prednisolone]
Biological Half Life [3]: 18-36 Hours

C[C@H]1C[C@@H]2[C@H]([C@@H](O)C[C@@]3(C)[C@H]2CC[C@]3(O)C(=O)CO)[C@@]2(C)C=CC(=O)C=C12 [Methyl-prednisolone, methylprednisolone]
Biological Half Life [3]: 18-36 Hours

CCC(=O)OCC(=O)[C@@]1(OC(=O)CC)[C@@H](C)C[C@H]2[C@@H]3CCC4=CC(=O)C=C[C@]4(C)[C@@]3(F)[C@@H](O)C[C@@]21C [Betamethasone dipropionate, 9-Fluoro-11β,17,21-trihydroxy-16β-methylpregna-1,4-diene-3,20-dione 17,21-dipropionate]
plasma concentration [4]: < 5 pg/mL
Biological Half Life [3]: 36-54 Hours

C[C@]12C=CC(=O)C=C1CC[C@H]1[C@@H]3C[C@@H](O)[C@](O)(C(=O)CO)[C@@]3(C)C[C@H](O)[C@@]12F [triamcinolone]
Biological Half Life [3]: 18-36 Hours

Clc1ccccc1C(c1ccccc1)(c1ccccc1)n1ccnc1 [clotrimazole]
effect on Pseudomonas aeruginosa (Pseudomonas aeruginosa): reduction
antibacterial activity [5]: antibacterial activity

C[C@]12CCC(=O)C=C1CC[C@@H]1[C@@H]2[C@@H](O)C[C@@]2(C)[C@H]1CC[C@]2(O)C(=O)CO [hydrocortisone]
Biological Half Life [3]: 8-12 Hours
